Measurements taken from US20170354638A1, “BIXA ORELLANA COMPOSITION FOR THE TREATMENT MACULAR DEGENERATION” (BIOPHYTIS, priority 2011, published 2017).

Tested on: primary cultures of adult porcine RPE cells
Experiment: RPE cellular model of phototoxicity induced by A2E treatment followed by blue radiation illumination; cell survival
Assay type: cell-based
Settings: for protective effect (cell survival vs control without A2E): concentrations of 0.1 and 1 μM, 48 h treatment, last 24 h with A2E, then blue light; for protection, percentage of survival compared to the control without A2E: 10 μM
Description: Given the very probable role of this mechanism in the development of AMD, the inventors used an in vitro cellular model of induced phototoxicity by the association of a treatment with A2E and illumination by blue light on RPE primary cell cultures wherein cell survival was measured. This model was developed by the Institute of Vision and allows for screening molecules aimed to discover new candidates for the treatment of dry AMD.
To test the photoprotective effect of the test substances, the inventors used a cellular model of induced phototoxicity by treatment with A2E followed by illumination with blue radiation. This model was produced from primary cultures of adult porcine RPE cells. Cell survival was determined by the ratio between the number of living cells and the total number of cells (alive+dead, respectively quantified using specific staining). Image acquisition was performed using a fluorescence microscope controlled by Metamorph software and quantifications were made by processing images acquired by a program dedicated quantification. The experiments were performed in 96-well microplates in quadruplicate and the experiment was repeated at least four times. Cells were treated for 48 hours with these compounds, the last 24 hours in the presence of A2E before induction of phototoxicity. Three concentrations (0.1, 1 and 10 μM) were tested for each compound. Some compounds were further tested at 20 μM to achieve a range of concentrations.

CC1=C(/C=C/C(C)=C/C=C/C(C)=C/C=C/C=C(C)/C=C/C=C(C)/C=C/C2=C(C)C[C@@H](O)CC2(C)C)C(C)(C)C[C@H](O)C1 [Zeaxanthin, reference compound]
protective effect (cell survival vs control without A2E): did not show a protective effect

O=c1oc2c(O)c(O)cc3c(=O)oc4c(O)c(O)cc1c4c23 [Ellagic acid]
protection, percentage of survival compared to the control without A2E: ~68% | protection against phototoxicity (in words) (20 μM): protection similar to that measured at 10 μM | protective effect (cell survival vs control without A2E): did not show a protective effect

Oc1ccc(C=Cc2cc(O)cc(O)c2)cc1 [Resveratrol, reference compound]
protective effect (cell survival vs control without A2E): did not show a protective effect

CC1=C[C@H](O)CC(C)(C)[C@H]1/C=C/C(C)=C/C=C/C(C)=C/C=C/C=C(C)/C=C/C=C(C)/C=C/C1=C(C)C[C@@H](O)CC1(C)C [Lutein, reference compound]
protective effect (cell survival vs control without A2E): did not show a protective effect

Oc1cc(O)c2cc(O)c(-c3ccc(O)c(O)c3)[o+]c2c1 [Cyanidin]
protection, percentage of survival compared to the control without A2E: ~87%

O=c1cc(-c2ccc(O)c(O)c2)oc2c([C@@H]3O[C@H](CO)[C@@H](O)[C@H](O)[C@H]3O)c(O)cc(O)c12 [Orientin]
protective effect (cell survival vs control without A2E): did not show a protective effect

CC(/C=C/C=C(\C)C(=O)O)=C\C=C\C=C(C)\C=C\C=C(/C)C(=O)O [Crocetin]
protective effect (cell survival vs control without A2E): did not show a protective effect

O=C1C[C@@H](c2ccc(O)cc2)Oc2cc(O)cc(O)c21 [Naringenin]
protective effect (cell survival vs control without A2E): did not show a protective effect
